Source: patent US20030134892A1, “Compositions for treatment of head and neck cancers, and methods of making and using the same” (priority 2001, published 2003)

How the values were obtained:
JHU012 cells = assay: Experiment 1: human orthotopic squamous cell head and neck cancer model, tumor size after treatment; assay type: in vivo, Nu/nu mice; settings: 45 days following treatment
Experimental: The efficacy of paclitaxel microsphere formulations in human orthotopic squamous cell head and neck cancer models were tested below.
Nu/nu mice were injected with 1×10^7 JHU012 cells into the anterior floor of mouth near the genial tubercle of the mandible. 12 days following cell injection, the tumors were approximately 80 mm^3. […] 45 days following treatment, the animals were sacrificed and tumors measured again.

[1] = system: human head and neck cancer cell line; assay: Experiment 2: human tumor model with radiation, orthotopic tumor in the neck of a nude mouse; assay type: in vivo; settings: injected intratumorally three week post cell injection, followed by fractionated radiation (RT) 2 gy/day for 4 days
Experimental: In this study, the model is also a human head and neck cancer cell line but the tumor was grown orthotopically in the neck of a nude mouse. Three week post cell injection the tumors were injected intratumorally with paclimer and then followed by fractionated radiation, 2 gy/day for 4 days.

Structure (SMILES) | Tumor Size at end of Experiment 1 (JHU012 cells; 0.15 mmol/kg/day oral, 4 days) [mm^3] | Tumor Size [1] [mm^3] | Tumor Size at end of Experiment 1 (JHU012 cells; 24 mg/kg i.p., tumors approx. 80 mm^3 at treatment) [mm^3]
O=c1[nH]cc(F)c(=O)[nH]1 [5-fu, 5-fluorouracil] | 518.7 ± 96.3 |  | 
CC(=O)O[C@H]1C(=O)[C@@]2(C)[C@H]([C@H](OC(=O)c3ccccc3)[C@]3(O)C[C@H](OC(=O)[C@H](O)[C@@H](NC(=O)c4ccccc4)c4ccccc4)C(C)=C1C3(C)C)[C@]1(OC(C)=O)CO[C@@H]1C[C@@H]2O [ptx, paclitaxel] |  | 102.3 ± 37.0 | 973.3 ± 91.7
